How the values were obtained:
Experiment in all cases: Test E preemergence
Format in all cases: in vivo
Settings in all cases: scale 0 to 100
[1] = tested on: green foxtail (Setaria viridis)
Text: (§1) Seeds of plant species selected from corn (Zea mays), soybean (Glycine max), velvetleaf (Abutilon theophrasti), cocklebur (common cocklebur, Xanthium strumarium), lambsquarters (Chenopodium album), wild poinsettia (Euphorbia heterophylla), palmer pigweed (Amaranthus palmeri), waterhemp (common waterhemp, Amaranthus rudis), surinam grass (Brachiaria decumbens), large (Lg) crabgrass (Digitaria sanguinalis), Brazilian crabgrass (Digitaria horizontalis), fall panicum (Panicum dichotomiflorum), giant foxtail (Setaria faberii), green foxtail (Setaria viridis), goosegrass (Eleusine indica), johnsongrass (Sorghum halepense), ragweed (common ragweed, Ambrosia elatior), barnyardgrass (Echinochloa crus-galli), sandbur (southern sandbur, Cenchrus echinatus), arrowleaf sida (Sida rhombifolia), Italian ryegrass (Lolium multiflorum), dayflower (Virginia (VA) dayflower, Commelina virginica), field bindweed (Convolvulus arvensis), morningglory (Ipomoea coccinea), nightshade (eastern black nightshade, Solanum ptycanthum), kochia (Kochia scoparia), yellow nutsedge (Cyperus esculentus), horseweed (Conyza canadensis), and hairy beggarticks (Bidens pilosa), were planted into a silt loam soil and treated preemergence with test chemicals formulated in a non-phytotoxic solvent mixture which included a surfactant.
(§2) At the same time, plants from these crop and weed species and also waterhemp_RES1, (ALS & Triazine resistant common waterhemp, Amaranthus rudis), and waterhemp_RES2, (ALS & HPPD resistant common waterhemp, Amaranthus rudis) were planted in pots containing Redi-Earth® planting medium (Scotts Company, 14111 Scottslawn Road, Marysville, Ohio 43041) comprising spaghnum peat moss, vermiculite, wetting agent and starter nutrients were treated with postemergence applications of test chemicals formulated in the same manner. Plants ranged in height from 2 to 18 cm for postemergence treatments (1- to 4-leaf stage). Treated plants and controls were maintained in a greenhouse for 14 to 21 days, after which time all species were compared to controls and visually evaluated. Plant response ratings, summarized in Table E, are based on a scale of 0 to 100 where 0 is no effect and 100 is complete control. A dash (-) response means no test result.

[2] = tested on: field bindweed (Convolvulus arvensis)
Text: as §1, §2

[3] = tested on: yellow nutsedge (Cyperus esculentus)
Text: as §1, §2

[4] = tested on: lambsquarters (Chenopodium album)
Text: as §1, §2

[5] = tested on: barnyardgrass (Echinochloa crus-galli)
Text: as §1, §2

[6] = tested on: dayflower (Virginia (VA) dayflower, Commelina virginica)
Text: as §1, §2

[7] = tested on: waterhemp (common waterhemp, Amaranthus rudis)
Text: as §1, §2

soybean (Glycine max) = tested on: soybean (Glycine max)
Text: as §1, §2

[8] = tested on: nightshade (eastern black nightshade, Solanum ptycanthum)
Text: as §1, §2

[9] = tested on: large (Lg) crabgrass (Digitaria sanguinalis)
Text: as §1, §2

[10] = tested on: arrowleaf sida (Sida rhombifolia)
Text: as §1, §2

[11] = tested on: morningglory (Ipomoea coccinea)
Text: as §1, §2

[12] = tested on: ragweed (common ragweed, Ambrosia elatior)
Text: as §1, §2

[13] = tested on: palmer pigweed (Amaranthus palmeri)
Text: as §1, §2

corn (Zea mays) = tested on: corn (Zea mays)
Text: as §1, §2

[14] = tested on: giant foxtail (Setaria faberii)
Text: as §1, §2

[15] = tested on: velvetleaf (Abutilon theophrasti)
Text: as §1, §2

[16] = tested on: Surinam grass (Brachiaria decumbens)
Text: as §1, §2

[17] = tested on: sandbur (southern sandbur, Cenchrus echinatus)
Text: as §1, §2

[18] = tested on: goosegrass (Eleusine indica)
Text: as §1, §2

[19] = tested on: hairy beggarticks (Bidens pilosa)
Text: as §1, §2

Fc1ccc(F)c(Oc2ncc(Cl)cn2)c1Oc1ncc(Cl)cn1 [Compound 34, 2,2′-[(3,6-difluoro-1,2-phenylene)bis(oxy)]bis[5-chloropyrimidine]]
Plant response rating, Foxtail, Green ([1]; 16 g ai/ha): 0
Plant response rating, Foxtail, Green ([1]; 31 g ai/ha): 10
Plant response rating, Foxtail, Green ([1]; 62 g ai/ha): 65
Plant response rating, Foxtail, Green ([1]; 125 g ai/ha): 70
Plant response rating, Field Bindweed ([2]; 16 g ai/ha): 0
Plant response rating, Field Bindweed ([2]; 31 g ai/ha): 0
Plant response rating, Field Bindweed ([2]; 62 g ai/ha): 0
Plant response rating, Field Bindweed ([2]; 125 g ai/ha): 0
Plant response rating, Nutsedge, Yellow ([3]; 16 g ai/ha): 0
Plant response rating, Nutsedge, Yellow ([3]; 31 g ai/ha): 0
Plant response rating, Nutsedge, Yellow ([3]; 62 g ai/ha): 0
Plant response rating, Nutsedge, Yellow ([3]; 125 g ai/ha): 0
Plant response rating, Lambsquarters ([4]; 16 g ai/ha): 0
Plant response rating, Lambsquarters ([4]; 31 g ai/ha): 70
Plant response rating, Lambsquarters ([4]; 62 g ai/ha): 90
Plant response rating, Lambsquarters ([4]; 125 g ai/ha): 100
Plant response rating, Barnyardgrass ([5]; 16 g ai/ha): 0
Plant response rating, Barnyardgrass ([5]; 31 g ai/ha): 0
Plant response rating, Barnyardgrass ([5]; 62 g ai/ha): 20
Plant response rating, Barnyardgrass ([5]; 125 g ai/ha): 60
Plant response rating, Dayflower, VA ([6]; 16 g ai/ha): 0
Plant response rating, Dayflower, VA ([6]; 31 g ai/ha): 30
Plant response rating, Dayflower, VA ([6]; 62 g ai/ha): 20
Plant response rating, Dayflower, VA ([6]; 125 g ai/ha): 90
Plant response rating, Waterhemp ([7]; 16 g ai/ha): 100
Plant response rating, Waterhemp ([7]; 31 g ai/ha): 100
Plant response rating, Waterhemp ([7]; 62 g ai/ha): 100
Plant response rating, Waterhemp ([7]; 125 g ai/ha): 100
Plant response rating, Soybean (soybean (Glycine max); 16 g ai/ha): 0
Plant response rating, Soybean (soybean (Glycine max); 31 g ai/ha): 10
Plant response rating, Soybean (soybean (Glycine max); 62 g ai/ha): 25
Plant response rating, Soybean (soybean (Glycine max); 125 g ai/ha): 60
Plant response rating, Nightshade ([8]; 16 g ai/ha): 50
Plant response rating, Nightshade ([8]; 31 g ai/ha): 50
Plant response rating, Nightshade ([8]; 62 g ai/ha): 80
Plant response rating, Nightshade ([8]; 125 g ai/ha): 95
Plant response rating, Crabgrass, Large ([9]; 16 g ai/ha): 0
Plant response rating, Crabgrass, Large ([9]; 31 g ai/ha): 25
Plant response rating, Crabgrass, Large ([9]; 62 g ai/ha): 98
Plant response rating, Crabgrass, Large ([9]; 125 g ai/ha): 98
Plant response rating, Arrowleaf Sida ([10]; 16 g ai/ha): 60
Plant response rating, Arrowleaf Sida ([10]; 31 g ai/ha): 80
Plant response rating, Arrowleaf Sida ([10]; 62 g ai/ha): 98
Plant response rating, Arrowleaf Sida ([10]; 125 g ai/ha): 100
Plant response rating, Morningglory ([11]; 31 g ai/ha): 20
Plant response rating, Morningglory ([11]; 62 g ai/ha): 50
Plant response rating, Morningglory ([11]; 125 g ai/ha): 65
Plant response rating, Ragweed ([12]; 16 g ai/ha): 0
Plant response rating, Ragweed ([12]; 31 g ai/ha): 0
Plant response rating, Ragweed ([12]; 62 g ai/ha): 25
Plant response rating, Ragweed ([12]; 125 g ai/ha): 35
Plant response rating, Pigweed, Palmer ([13]; 16 g ai/ha): 0
Plant response rating, Pigweed, Palmer ([13]; 31 g ai/ha): 50
Plant response rating, Pigweed, Palmer ([13]; 62 g ai/ha): 70
Plant response rating, Pigweed, Palmer ([13]; 125 g ai/ha): 100
Plant response rating, Corn (corn (Zea mays); 16 g ai/ha): 0
Plant response rating, Corn (corn (Zea mays); 31 g ai/ha): 0
Plant response rating, Corn (corn (Zea mays); 62 g ai/ha): 0
Plant response rating, Corn (corn (Zea mays); 125 g ai/ha): 0
Plant response rating, Foxtail, Giant ([14]; 16 g ai/ha): 0
Plant response rating, Foxtail, Giant ([14]; 31 g ai/ha): 50
Plant response rating, Foxtail, Giant ([14]; 62 g ai/ha): 85
Plant response rating, Foxtail, Giant ([14]; 125 g ai/ha): 80
Plant response rating, Velvetleaf ([15]; 16 g ai/ha): 30
Plant response rating, Velvetleaf ([15]; 31 g ai/ha): 100
Plant response rating, Velvetleaf ([15]; 62 g ai/ha): 100
Plant response rating, Velvetleaf ([15]; 125 g ai/ha): 100
Plant response rating, Surinam Grass ([16]; 16 g ai/ha): 0
Plant response rating, Surinam Grass ([16]; 31 g ai/ha): 0
Plant response rating, Surinam Grass ([16]; 125 g ai/ha): 10
Plant response rating, Sandbur ([17]; 16 g ai/ha): 0
Plant response rating, Sandbur ([17]; 31 g ai/ha): 0
Plant response rating, Sandbur ([17]; 62 g ai/ha): 10
Plant response rating, Sandbur ([17]; 125 g ai/ha): 70
Plant response rating, Goosegrass ([18]; 16 g ai/ha): 0
Plant response rating, Goosegrass ([18]; 31 g ai/ha): 0
Plant response rating, Goosegrass ([18]; 62 g ai/ha): 5
Plant response rating, Goosegrass ([18]; 125 g ai/ha): 80
Plant response rating, Beggarticks ([19]; 16 g ai/ha): 50
Plant response rating, Beggarticks ([19]; 31 g ai/ha): 60
Plant response rating, Beggarticks ([19]; 62 g ai/ha): 70
Plant response rating, Beggarticks ([19]; 125 g ai/ha): 75

Reference: US20170190671A1, “BIS(ARYL)CATECHOL DERIVATIVES AS HERBICIDES” (E I DU PONT DE NEMOURS AND COMPANY, priority 2014, published 2017)
